Legend:
[1] = DRUGMATRIX: Imidazoline I2, Central radioligand binding (ligand: [3H] Idazoxan); assay type: cell membranes, Rattus norvegicus, Wistar, Cerebral cortex, Membrane; conditions: Not Active = under 50% inhibition at 10 µM
[2] = target: T1, Interstitial collagenase (Homo sapiens, UniProt P03956); test: biochemical; assay type: tissue-based, Rheumatoid synovial fibroblasts;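 note: MMP-1 enzyme inhibition assay using a peptide substrate; in other assays of this panel Not Active means under 50% inhibition at 10 µM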
T1 sequence (P03956 whole entry): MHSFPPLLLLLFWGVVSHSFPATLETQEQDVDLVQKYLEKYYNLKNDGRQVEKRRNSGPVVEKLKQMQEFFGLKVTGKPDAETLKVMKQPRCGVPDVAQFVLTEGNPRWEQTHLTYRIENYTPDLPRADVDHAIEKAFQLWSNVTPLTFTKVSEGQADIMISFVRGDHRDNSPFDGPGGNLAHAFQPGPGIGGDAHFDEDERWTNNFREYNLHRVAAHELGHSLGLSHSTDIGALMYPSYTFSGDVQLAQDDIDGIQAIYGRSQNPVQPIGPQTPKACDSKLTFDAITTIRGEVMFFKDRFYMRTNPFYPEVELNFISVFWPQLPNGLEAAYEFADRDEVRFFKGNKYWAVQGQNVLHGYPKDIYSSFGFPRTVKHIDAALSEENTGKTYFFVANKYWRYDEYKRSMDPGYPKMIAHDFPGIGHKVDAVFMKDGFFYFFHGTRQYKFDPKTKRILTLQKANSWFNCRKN

[3] = target: D(3) dopamine receptor (Homo sapiens, UniProt P35462); test: DRUGMATRIX: Dopamine D3 radioligand binding (ligand: [3H] Spiperone); assay type: cell membranes, CHO, Membrane; conditions: cho
[4] = target: T2, Neuropeptide Y receptor type 1 (Homo sapiens, UniProt P25929); assay type: cell membranes, Membrane; conditions: sk-n-mc; note: in other assays of this panel Not Active means under 50% inhibition at 10 µM
T2 sequence (P25929 whole entry): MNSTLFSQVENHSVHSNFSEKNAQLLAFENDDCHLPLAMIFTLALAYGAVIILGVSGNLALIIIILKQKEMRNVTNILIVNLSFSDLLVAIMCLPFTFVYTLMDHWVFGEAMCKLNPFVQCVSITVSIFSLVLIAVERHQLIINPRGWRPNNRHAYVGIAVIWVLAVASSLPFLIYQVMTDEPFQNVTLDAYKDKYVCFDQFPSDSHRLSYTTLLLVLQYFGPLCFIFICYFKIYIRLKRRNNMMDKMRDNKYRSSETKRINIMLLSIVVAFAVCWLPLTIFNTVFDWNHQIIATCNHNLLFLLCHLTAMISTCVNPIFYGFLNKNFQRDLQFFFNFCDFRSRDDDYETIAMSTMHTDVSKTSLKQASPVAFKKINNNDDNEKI

[5] = DRUGMATRIX: Tumor Necrosis Factor (TNF), Non-Selective radioligand binding (ligand: [125I] TNF-alpha); assay type: cell membranes, Membrane; conditions: u-937; Not Active = under 50% inhibition at 10 µM
[6] = target: T3, Alpha-2C adrenergic receptor (Homo sapiens, UniProt P18825); test: DRUGMATRIX: Adrenergic Alpha-2C radioligand binding (ligand: [3H] MK-912); assay type: cell membranes, Sf9, Membrane; conditions: sf9
T3 sequence (P18825 whole entry): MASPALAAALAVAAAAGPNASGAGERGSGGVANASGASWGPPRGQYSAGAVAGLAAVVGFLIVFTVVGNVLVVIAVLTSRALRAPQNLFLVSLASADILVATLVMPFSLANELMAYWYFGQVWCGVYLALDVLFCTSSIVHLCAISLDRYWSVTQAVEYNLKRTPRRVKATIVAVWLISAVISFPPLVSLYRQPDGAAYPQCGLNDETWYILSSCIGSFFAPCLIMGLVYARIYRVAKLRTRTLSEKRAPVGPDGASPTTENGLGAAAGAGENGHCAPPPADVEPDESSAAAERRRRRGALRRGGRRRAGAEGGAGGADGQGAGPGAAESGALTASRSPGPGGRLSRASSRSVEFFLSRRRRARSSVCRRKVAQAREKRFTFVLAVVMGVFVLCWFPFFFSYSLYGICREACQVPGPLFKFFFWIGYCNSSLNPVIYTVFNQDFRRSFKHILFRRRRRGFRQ

[7] = DRUGMATRIX: Serotonin (5-Hydroxytryptamine) 5-HT3 radioligand binding (ligand: [3H] GR-65630); assay type: cell membranes, Membrane; conditions: hek293; Not Active = under 50% inhibition at 10 µM
[8] = target: T4, Alpha-1B adrenergic receptor (Rattus norvegicus, UniProt P15823); test: DRUGMATRIX: Alpha-1B adrenergic receptor radioligand binding (ligand: prazosin); assay type: cell membranes, Wistar, Liver, Membrane; conditions: Not Active = under 50% inhibition at 10 µM
T4 sequence (P15823 whole entry): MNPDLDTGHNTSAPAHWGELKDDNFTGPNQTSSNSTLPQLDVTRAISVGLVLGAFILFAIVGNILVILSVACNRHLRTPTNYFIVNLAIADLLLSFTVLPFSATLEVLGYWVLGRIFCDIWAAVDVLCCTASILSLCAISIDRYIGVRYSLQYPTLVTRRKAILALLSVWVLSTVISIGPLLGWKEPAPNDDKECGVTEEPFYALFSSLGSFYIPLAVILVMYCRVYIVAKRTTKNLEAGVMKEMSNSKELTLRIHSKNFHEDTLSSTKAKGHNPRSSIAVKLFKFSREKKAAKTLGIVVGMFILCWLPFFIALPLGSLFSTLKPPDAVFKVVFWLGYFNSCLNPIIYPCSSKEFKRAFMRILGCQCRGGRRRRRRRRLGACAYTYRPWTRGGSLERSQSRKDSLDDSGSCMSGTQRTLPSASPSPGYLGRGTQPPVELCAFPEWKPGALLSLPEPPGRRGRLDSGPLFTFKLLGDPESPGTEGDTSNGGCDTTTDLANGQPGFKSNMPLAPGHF

[9] = target: Epidermal growth factor receptor (Homo sapiens, UniProt P00533); test: DRUGMATRIX: Protein Tyrosine Kinase, EGF Receptor enzyme inhibition (substrate: Poly(Glu:Tyr)); assay type: cell-based, Insect cells; conditions: insect cells; Not Active = under 50% inhibition at 10 µM
[10] = target: T5, Neutrophil elastase (Homo sapiens, UniProt P08246); assay type: tissue-based;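 note: inhibition of neutrophil elastase enzyme activity, measured with a p-nitroanilide-linked peptide substrate; in other assays of this panel Not Active means under 50% inhibition at 10 µM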
T5 sequence (P08246 whole entry): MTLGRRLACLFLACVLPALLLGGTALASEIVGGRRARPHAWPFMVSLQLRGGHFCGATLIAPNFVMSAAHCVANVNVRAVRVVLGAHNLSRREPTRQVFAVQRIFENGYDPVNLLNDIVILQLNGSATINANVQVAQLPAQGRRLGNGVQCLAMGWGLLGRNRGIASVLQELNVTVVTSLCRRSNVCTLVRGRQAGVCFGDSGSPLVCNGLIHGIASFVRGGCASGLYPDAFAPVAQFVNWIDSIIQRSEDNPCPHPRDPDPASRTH

Chain of Epidermal growth factor receptor (P00533 whole entry): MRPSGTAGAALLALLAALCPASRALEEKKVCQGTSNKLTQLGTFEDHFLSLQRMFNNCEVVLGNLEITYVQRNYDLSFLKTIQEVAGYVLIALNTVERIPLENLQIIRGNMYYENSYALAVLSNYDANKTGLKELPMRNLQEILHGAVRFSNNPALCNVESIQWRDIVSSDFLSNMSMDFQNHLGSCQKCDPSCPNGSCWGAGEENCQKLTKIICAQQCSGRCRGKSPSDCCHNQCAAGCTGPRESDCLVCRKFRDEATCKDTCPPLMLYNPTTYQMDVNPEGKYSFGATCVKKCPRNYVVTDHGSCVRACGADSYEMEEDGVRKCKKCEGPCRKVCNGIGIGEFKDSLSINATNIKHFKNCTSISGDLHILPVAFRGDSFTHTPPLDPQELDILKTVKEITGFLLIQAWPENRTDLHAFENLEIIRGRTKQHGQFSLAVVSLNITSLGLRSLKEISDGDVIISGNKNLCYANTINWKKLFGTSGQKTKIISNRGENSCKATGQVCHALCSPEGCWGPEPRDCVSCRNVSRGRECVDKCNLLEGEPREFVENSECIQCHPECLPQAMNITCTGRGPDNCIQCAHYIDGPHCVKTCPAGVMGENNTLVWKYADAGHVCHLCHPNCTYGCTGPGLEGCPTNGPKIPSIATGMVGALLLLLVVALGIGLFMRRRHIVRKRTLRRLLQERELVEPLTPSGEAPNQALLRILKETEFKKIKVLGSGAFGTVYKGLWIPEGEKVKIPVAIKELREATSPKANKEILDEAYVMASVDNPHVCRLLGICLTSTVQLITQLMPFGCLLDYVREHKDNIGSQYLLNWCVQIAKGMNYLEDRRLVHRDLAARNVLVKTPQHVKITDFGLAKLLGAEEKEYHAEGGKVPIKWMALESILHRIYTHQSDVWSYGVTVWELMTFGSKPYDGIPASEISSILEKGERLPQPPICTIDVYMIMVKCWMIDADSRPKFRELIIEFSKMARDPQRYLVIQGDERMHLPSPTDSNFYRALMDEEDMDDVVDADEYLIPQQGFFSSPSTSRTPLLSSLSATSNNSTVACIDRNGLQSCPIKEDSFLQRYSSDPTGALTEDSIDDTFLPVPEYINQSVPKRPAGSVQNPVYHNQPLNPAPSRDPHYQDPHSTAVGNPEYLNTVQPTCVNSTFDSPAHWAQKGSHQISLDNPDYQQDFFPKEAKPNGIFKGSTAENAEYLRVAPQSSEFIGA
Chain of D(3) dopamine receptor (P35462 whole entry): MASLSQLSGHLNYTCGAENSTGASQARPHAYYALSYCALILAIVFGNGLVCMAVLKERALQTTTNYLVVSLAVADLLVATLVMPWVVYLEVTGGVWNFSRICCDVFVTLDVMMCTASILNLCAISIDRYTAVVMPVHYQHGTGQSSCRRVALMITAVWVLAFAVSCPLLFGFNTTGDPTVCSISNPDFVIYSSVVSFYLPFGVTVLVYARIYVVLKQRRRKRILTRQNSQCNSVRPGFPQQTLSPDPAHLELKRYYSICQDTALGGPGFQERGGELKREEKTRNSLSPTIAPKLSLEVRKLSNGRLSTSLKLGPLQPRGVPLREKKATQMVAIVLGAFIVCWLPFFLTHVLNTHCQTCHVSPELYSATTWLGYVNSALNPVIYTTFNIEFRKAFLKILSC

CO[C@H]1/C=C/O[C@@]2(C)Oc3c(C)c(O)c4c(c3C2=O)C2=NC3(CCN(CC(C)C)CC3)NC2=C(NC(=O)/C(C)=C\C=C\[C@H](C)[C@H](O)[C@@H](C)[C@@H](O)[C@@H](C)[C@H](OC(C)=O)[C@@H]1C)C4=O [RIFABUTIN]
Not Active: IC50 [1] | Ki [1] | IC50 [2] | IC50 [3] | IC50 [4] | IC50 [5] | Ki [5] | IC50 [6] | IC50 [7] | Ki [7] | IC50 [8] | IC50 [9] | IC50 [10]

CC(C)c1nc(CN(C)C(=O)N[C@H](C(=O)N[C@@H](Cc2ccccc2)C[C@H](O)[C@H](Cc2ccccc2)NC(=O)OCc2cncs2)C(C)C)cs1 [RITONAVIR]
Not Active: IC50 [1] | Ki [1] | IC50 [2] | IC50 [3] | IC50 [4] | IC50 [5] | Ki [5] | IC50 [6] | IC50 [7] | Ki [7] | IC50 [8] | IC50 [9] | IC50 [10]

CC(C)CC(N(C)C)C1(c2ccc(Cl)cc2)CCC1 (centres undefined) [SIBUTRAMINE]
Not Active: IC50 [1] | Ki [1] | IC50 [2] | IC50 [3] | IC50 [4] | IC50 [5] | Ki [5] | IC50 [6] | IC50 [7] | Ki [7] | IC50 [8] | IC50 [9] | IC50 [10]

[H]/N=C(/N)N[C@H]1[C@H](O)[C@@H](O)[C@H](O[C@@H]2O[C@@H](C)[C@](O)(C=O)[C@H]2O[C@@H]2O[C@@H](CO)[C@H](O)[C@@H](O)[C@@H]2NC)[C@@H](N/C(N)=N\[H])[C@@H]1O [STREPTOMYCIN]
Not Active: IC50 [1] | Ki [1] | IC50 [2] | IC50 [3] | IC50 [4] | IC50 [5] | Ki [5] | IC50 [6] | IC50 [7] | Ki [7] | IC50 [8] | IC50 [9] | IC50 [10]

COc1cc(NS(=O)(=O)c2ccc(N)cc2)nc(OC)n1 [SULFADIMETHOXINE]
Not Active: IC50 [1] | Ki [1] | IC50 [2] | IC50 [3] | IC50 [4] | IC50 [5] | Ki [5] | IC50 [6] | IC50 [7] | Ki [7] | IC50 [8] | IC50 [9] | IC50 [10]

Cc1cc(C)nc(NS(=O)(=O)c2ccc(N)cc2)n1 [SULFAMETHAZINE]
Not Active: IC50 [1] | Ki [1] | IC50 [2] | IC50 [3] | IC50 [4] | IC50 [5] | Ki [5] | IC50 [6] | IC50 [7] | Ki [7] | IC50 [8] | IC50 [9] | IC50 [10]

C[C@]1(Cn2ccnn2)[C@H](C(=O)O)N2C(=O)C[C@H]2S1(=O)=O [TAZOBACTAM]
Not Active: IC50 [1] | Ki [1] | IC50 [2] | IC50 [3] | IC50 [4] | IC50 [5] | Ki [5] | IC50 [6] | IC50 [7] | Ki [7] | IC50 [8] | IC50 [9] | IC50 [10]

CN1C(C(=O)Nc2ccccn2)=C(O)c2sccc2S1(=O)=O [TENOXICAM]
Not Active: IC50 [1] | Ki [1] | IC50 [2] | IC50 [3] | IC50 [4] | IC50 [5] | Ki [5] | IC50 [6] | IC50 [7] | Ki [7] | IC50 [8] | IC50 [9] | IC50 [10]

O=C1CCC(N2C(=O)c3ccccc3C2=O)C(=O)N1 (centres undefined) [THALIDOMIDE]
Not Active: IC50 [1] | Ki [1] | IC50 [2] | IC50 [3] | IC50 [4] | IC50 [5] | Ki [5] | IC50 [6] | IC50 [7] | Ki [7] | IC50 [8] | IC50 [9] | IC50 [10]

Cc1cccc(Nc2ccncc2S(=O)(=O)NC(=O)NC(C)C)c1 [TORSEMIDE]
Not Active: IC50 [1] | Ki [1] | IC50 [2] | IC50 [3] | IC50 [4] | IC50 [5] | Ki [5] | IC50 [6] | IC50 [7] | Ki [7] | IC50 [8] | IC50 [9] | IC50 [10]

CC(C)C[C@H](NC(=O)[C@@H](O)[C@H](N)Cc1ccccc1)C(=O)O [UBENIMEX]
Not Active: IC50 [1] | Ki [1] | IC50 [2] | IC50 [3] | IC50 [4] | IC50 [5] | Ki [5] | IC50 [6] | IC50 [7] | Ki [7] | IC50 [8] | IC50 [9] | IC50 [10]

Cc1onc(-c2ccccc2)c1-c1ccc(S(N)(=O)=O)cc1 [VALDECOXIB]
Not Active: IC50 [1] | Ki [1] | IC50 [2] | IC50 [3] | IC50 [4] | IC50 [5] | Ki [5] | IC50 [6] | IC50 [7] | Ki [7] | IC50 [8] | IC50 [9] | IC50 [10]

CC[C@]1(O)C[C@@H]2CN(CCc3c([nH]c4ccccc34)[C@@](C(=O)OC)(c3cc4c(cc3OC)N(C)[C@H]3[C@@](O)(C(=O)OC)[C@H](OC(C)=O)[C@]5(CC)C=CCN6CC[C@]43[C@@H]65)C2)C1 [VINBLASTINE]
Not Active: IC50 [1] | Ki [1] | IC50 [2] | IC50 [3] | IC50 [4] | IC50 [5] | Ki [5] | IC50 [6] | IC50 [7] | Ki [7] | IC50 [8] | IC50 [9] | IC50 [10]
